# Laboratory results taken from US7442798B2, “Autoinducer molecules and uses therefor” (priority 2000, dated 2008).
# Entries after “also recorded” stand apart in the source; their conditions may differ.
# Assays:
# [1] = test system: lasB′-lacZ fusion; experiment: PQS bioassay: activation of lasB′-lacZ fusion in P. aeruginosa strain PAO-R1 (lasR−) (pTS400), β-galactosidase assay; format: cell-based, Pseudomonas aeruginosa
# Experimental: To monitor PQS bioactivity, 1-ml cultures of P. aeruginosa strain PAO-R1 (pTS400) were grown for 18 h at 37° C. with shaking (260 rpm; initial optical density was 0.02 at 660 nm) in the presence of culture extract or synthetic PQS. This was followed by measuring activation of the lasB′-lacZ fusion with the use of β-galactosidase (β-gal) assays as described by Miller (19). For culture extracts, bacterial culture fluid was extracted with ethyl acetate and was prepared as described (3). Extracts that were resuspended in ethyl acetate were added to bioassay tubes, and ethyl acetate was removed by drying under a stream of nitrogen. Unless otherwise specified, the amount of material assayed was extracted from 10 ml of culture fluid.
# [2] = test system: lasB′-lacZ fusion; settings: strain PAO-R1 (lasR) (pTS400); cited from earlier work
# [3] = test system: RhlR; experiment: E. coli bioassay: strain DH5a (pECP62.5) with lasB′-lacZ reporter and inducible tacp-rhlR; format: cell-based, Escherichia coli; settings: E. coli strain DH5a (pECP62.5), tacp-rhlR induced
# Experimental: Using this information, an experiment was conducted to define the requirements for signal activity by developing an E. coli bioassay for the signal. E. coli strain DH5a was transformed with plasmid pECP62.5, which contained the lasB′-lacZ reporter and the inducible tacp-rhlR gene. If the signal worked directly through RhlR, then the induction of tacp-rhlR in the presence of exogenously added signal should result in the activation of lasB′-lacZ in E. coli strain DH5a (pECP62.5).
# [4] = test system: lasB′-lacZ; experiment: lasB′-lacZ bioassay in lasR, rhlR double mutant strain PAO-JP3 (pTS400); format: cell-based, Pseudomonas aeruginosa
# Experimental: This molecule was determined to have a 4-quinolone base structure and therefore has been designated as the Pseudomonas quinolone signal (PQS). Furthermore, exogenously added PQS induced a lasB′-lacZ fusion in the P. aeruginosa lasR mutant, strain PAO-R1, containing the plasmid pTS400. […] Despite the ability of PQS to activate lasB′-lacZ in the absence of lasR, the production of PQS required an active LasR protein. […] It was also determined that at least RhlR was required for PQS to act as a signal because lasB′-lacZ was not induced by PQS in the lasR, rhlR double mutant, strain PAO-JP3, containing the plasmid pTS400.
# [5] = test system: Staphylococcus aureus; experiment: anti-Staphylococcus aureus activity; format: cell-based
# [6] = test system: E. coli; experiment: anti-E. coli activity; format: cell-based
SMILES,induction of lasB′-lacZ / activity in the PQS bioassay (in words) ([1]; strain PAO-R1 (lasR−) (pTS400)),response of lasB′-lacZ fusion to exogenously added autoinducer (in words) [2],further results
"CCCCCCCc1cc(O)c2ccccc2[n+]1[O-] [2-heptyl-4-hydroxy-quinoline-N-oxide, reference compound]",not active,–,–
"CCCCCCCC1C(=O)c2ccccc2N=C1O (stereo not shown) [2-hydroxy-3-heptyl-4-quinolone, reference compound]",not active,–,–
"CCCCCCCCCC(=O)CC(=O)N[C@H]1CCOC1=O [3-oxo-C12-HSL, N-3-(oxododecanoyl)-L-homoserine lactone, reference compound]",could not be mimicked,unresponsive,–
"CCCC(=O)N[C@H]1CCOC1=O [C4-HSL, N-butanoyl-L-homoserine lactone, reference compound]",could not be mimicked,mildly activated,–
"CCCCCCCc1[nH]c2ccccc2c(=O)c1O [PQS, 2-heptyl-3-hydroxy-4-quinolone]",active; also recorded: dose-dependent induction,–,"PQS response, lasB′-lacZ, in recombinant E. coli expressing RhlR (in words) [3]: not replicated; induction of lasB′-lacZ (in words) [4]: not induced; activation of the lasB promoter (β-gal activity) ([1]; 5 mM synthetic PQS, strain PAO-R1 (lasR−) (pTS400), FIG. 6): 148 Miller units; EC50 ([1]; Pseudomonas aeruginosa, read-out: amount required to activate the bioassay to half of its maximum activity): ~30 µM; anti-Staphylococcus aureus activity [5]: does not have detectable; anti-E. coli activity [6]: does not have detectable"
